Reference: ChEMBL document CHEMBL5291721, “A preclinical secondary pharmacology resource illuminates target-adverse drug reaction associations of marketed drugs” (Nat Commun, 2023)

Legend:
Acetylcholinesterase = Acetylcholinesterase (Homo sapiens, UniProt P22303); format: functional
[1] = target: T1, Alpha-1A adrenergic receptor (Homo sapiens, UniProt P35348); format: functional, cell-based
T1 sequence (P35348 whole entry): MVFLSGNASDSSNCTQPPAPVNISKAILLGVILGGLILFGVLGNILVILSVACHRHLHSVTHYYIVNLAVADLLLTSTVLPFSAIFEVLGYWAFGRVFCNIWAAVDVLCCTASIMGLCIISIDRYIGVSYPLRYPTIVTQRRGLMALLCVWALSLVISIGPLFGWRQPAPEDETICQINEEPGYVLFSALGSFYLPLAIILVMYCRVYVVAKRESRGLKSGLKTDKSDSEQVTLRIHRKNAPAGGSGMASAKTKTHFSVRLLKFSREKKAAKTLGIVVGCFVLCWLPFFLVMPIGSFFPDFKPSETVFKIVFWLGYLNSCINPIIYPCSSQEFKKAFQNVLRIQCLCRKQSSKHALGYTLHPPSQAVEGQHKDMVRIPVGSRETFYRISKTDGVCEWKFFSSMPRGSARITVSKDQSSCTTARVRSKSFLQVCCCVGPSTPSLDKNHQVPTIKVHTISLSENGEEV

[2] = target: T2, Muscarinic acetylcholine receptor M1 (Homo sapiens, UniProt P11229); format: functional, cell-based
T2 sequence (P11229 whole entry): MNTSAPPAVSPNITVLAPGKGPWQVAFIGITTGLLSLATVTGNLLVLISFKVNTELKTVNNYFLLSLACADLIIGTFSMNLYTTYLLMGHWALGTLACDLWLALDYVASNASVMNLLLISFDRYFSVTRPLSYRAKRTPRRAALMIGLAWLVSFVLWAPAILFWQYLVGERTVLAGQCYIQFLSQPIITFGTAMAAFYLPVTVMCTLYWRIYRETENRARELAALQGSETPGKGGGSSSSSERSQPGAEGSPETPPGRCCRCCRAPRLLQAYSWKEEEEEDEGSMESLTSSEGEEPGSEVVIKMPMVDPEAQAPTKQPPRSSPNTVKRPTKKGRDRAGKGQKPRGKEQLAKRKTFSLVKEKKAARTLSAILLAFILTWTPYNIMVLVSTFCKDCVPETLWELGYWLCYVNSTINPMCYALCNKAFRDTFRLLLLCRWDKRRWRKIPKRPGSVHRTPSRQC

D(1A) dopamine receptor = D(1A) dopamine receptor (Homo sapiens, UniProt P21728)
Chain of D(1A) dopamine receptor (P21728 whole entry): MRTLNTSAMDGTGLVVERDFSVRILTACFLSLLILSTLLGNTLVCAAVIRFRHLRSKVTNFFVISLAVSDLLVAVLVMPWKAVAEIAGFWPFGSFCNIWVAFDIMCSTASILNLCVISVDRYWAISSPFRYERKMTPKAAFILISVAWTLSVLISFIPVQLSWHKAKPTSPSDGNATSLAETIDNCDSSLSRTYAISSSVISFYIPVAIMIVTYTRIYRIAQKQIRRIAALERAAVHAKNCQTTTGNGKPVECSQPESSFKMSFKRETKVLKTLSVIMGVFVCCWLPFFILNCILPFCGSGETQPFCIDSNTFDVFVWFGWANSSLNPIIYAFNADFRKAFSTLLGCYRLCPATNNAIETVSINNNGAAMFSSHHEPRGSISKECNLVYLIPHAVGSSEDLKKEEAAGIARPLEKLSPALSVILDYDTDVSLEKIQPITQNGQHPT

D(3) dopamine receptor = D(3) dopamine receptor (Homo sapiens, UniProt P35462)
Chain of D(3) dopamine receptor (P35462 whole entry): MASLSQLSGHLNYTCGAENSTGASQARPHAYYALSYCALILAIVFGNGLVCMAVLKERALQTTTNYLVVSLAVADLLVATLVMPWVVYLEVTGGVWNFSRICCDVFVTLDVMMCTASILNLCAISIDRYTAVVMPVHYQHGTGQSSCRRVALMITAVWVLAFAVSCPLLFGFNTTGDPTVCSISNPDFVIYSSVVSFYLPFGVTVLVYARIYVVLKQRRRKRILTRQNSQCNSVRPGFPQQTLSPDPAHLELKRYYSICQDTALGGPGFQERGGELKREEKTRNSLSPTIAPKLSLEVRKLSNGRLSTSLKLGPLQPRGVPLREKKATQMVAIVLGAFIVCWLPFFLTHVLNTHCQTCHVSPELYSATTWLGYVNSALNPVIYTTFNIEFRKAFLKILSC

[3] = target: Gamma-aminobutyric acid receptor subunit alpha-1/alpha-2/beta-2/gamma-2 (Homo sapiens, UniProt P14867+P18507+P47869+P47870); format: protein-complex assay
Chain of Gamma-aminobutyric acid receptor subunit alpha-1/alpha-2/beta-2/gamma-2 (P14867 whole entry): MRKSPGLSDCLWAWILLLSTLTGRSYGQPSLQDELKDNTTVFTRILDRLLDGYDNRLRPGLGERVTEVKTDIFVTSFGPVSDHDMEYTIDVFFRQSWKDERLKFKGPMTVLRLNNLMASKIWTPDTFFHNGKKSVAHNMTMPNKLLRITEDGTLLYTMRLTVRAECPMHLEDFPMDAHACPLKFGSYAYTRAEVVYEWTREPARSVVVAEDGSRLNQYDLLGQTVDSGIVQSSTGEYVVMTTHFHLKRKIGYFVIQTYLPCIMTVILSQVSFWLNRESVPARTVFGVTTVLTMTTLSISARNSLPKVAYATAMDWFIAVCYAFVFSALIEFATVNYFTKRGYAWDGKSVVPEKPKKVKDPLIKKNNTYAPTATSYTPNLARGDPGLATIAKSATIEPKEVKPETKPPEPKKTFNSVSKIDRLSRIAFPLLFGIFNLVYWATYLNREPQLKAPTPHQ
Chain of Gamma-aminobutyric acid receptor subunit alpha-1/alpha-2/beta-2/gamma-2 (P47870 whole entry): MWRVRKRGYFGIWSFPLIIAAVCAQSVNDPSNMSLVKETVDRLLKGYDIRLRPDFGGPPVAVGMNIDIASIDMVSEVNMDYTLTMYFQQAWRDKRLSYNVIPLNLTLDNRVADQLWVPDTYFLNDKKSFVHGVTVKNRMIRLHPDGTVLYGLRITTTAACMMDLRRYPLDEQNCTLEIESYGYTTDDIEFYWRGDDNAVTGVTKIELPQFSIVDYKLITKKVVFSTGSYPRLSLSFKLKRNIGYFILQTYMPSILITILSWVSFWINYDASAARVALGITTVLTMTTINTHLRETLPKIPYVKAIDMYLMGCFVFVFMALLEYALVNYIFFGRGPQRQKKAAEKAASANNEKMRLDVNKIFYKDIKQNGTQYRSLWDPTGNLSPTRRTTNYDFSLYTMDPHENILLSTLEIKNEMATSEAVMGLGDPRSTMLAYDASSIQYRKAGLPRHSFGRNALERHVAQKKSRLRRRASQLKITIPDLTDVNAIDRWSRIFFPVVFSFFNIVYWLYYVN
Chain of Gamma-aminobutyric acid receptor subunit alpha-1/alpha-2/beta-2/gamma-2 (P18507 whole entry): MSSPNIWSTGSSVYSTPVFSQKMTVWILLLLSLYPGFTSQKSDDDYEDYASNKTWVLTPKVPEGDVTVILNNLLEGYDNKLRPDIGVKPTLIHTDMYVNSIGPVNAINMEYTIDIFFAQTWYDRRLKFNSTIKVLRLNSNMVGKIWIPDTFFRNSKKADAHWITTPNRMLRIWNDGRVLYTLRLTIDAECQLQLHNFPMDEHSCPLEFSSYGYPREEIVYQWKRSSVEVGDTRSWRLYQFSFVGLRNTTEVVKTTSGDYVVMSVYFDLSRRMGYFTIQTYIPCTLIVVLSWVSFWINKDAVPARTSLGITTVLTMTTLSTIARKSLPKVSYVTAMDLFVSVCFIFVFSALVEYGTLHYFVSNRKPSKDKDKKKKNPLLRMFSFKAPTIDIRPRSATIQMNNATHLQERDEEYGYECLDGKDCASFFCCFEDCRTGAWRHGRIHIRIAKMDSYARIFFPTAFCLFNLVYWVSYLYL
Chain of Gamma-aminobutyric acid receptor subunit alpha-1/alpha-2/beta-2/gamma-2 (P47869 whole entry): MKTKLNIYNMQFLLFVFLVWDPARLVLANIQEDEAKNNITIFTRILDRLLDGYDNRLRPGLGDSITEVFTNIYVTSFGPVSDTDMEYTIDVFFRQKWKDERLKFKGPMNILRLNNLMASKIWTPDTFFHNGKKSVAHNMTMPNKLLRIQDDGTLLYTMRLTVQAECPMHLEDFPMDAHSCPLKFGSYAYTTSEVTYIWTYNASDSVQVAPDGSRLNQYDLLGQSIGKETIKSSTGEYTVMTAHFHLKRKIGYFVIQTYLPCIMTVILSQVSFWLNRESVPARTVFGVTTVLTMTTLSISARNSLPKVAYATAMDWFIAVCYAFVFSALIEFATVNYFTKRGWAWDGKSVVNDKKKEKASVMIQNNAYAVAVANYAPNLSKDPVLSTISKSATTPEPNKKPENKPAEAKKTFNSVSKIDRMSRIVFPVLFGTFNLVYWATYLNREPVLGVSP

[4] = target: Gamma-aminobutyric acid receptor subunit alpha-1 (Rattus norvegicus, UniProt P62813)
[5] = target: Voltage-gated inwardly rectifying potassium channel KCNH2 (Homo sapiens, UniProt Q12809); format: functional; conditions: read-out: AC50
Chain of Voltage-gated inwardly rectifying potassium channel KCNH2 (Q12809 whole entry): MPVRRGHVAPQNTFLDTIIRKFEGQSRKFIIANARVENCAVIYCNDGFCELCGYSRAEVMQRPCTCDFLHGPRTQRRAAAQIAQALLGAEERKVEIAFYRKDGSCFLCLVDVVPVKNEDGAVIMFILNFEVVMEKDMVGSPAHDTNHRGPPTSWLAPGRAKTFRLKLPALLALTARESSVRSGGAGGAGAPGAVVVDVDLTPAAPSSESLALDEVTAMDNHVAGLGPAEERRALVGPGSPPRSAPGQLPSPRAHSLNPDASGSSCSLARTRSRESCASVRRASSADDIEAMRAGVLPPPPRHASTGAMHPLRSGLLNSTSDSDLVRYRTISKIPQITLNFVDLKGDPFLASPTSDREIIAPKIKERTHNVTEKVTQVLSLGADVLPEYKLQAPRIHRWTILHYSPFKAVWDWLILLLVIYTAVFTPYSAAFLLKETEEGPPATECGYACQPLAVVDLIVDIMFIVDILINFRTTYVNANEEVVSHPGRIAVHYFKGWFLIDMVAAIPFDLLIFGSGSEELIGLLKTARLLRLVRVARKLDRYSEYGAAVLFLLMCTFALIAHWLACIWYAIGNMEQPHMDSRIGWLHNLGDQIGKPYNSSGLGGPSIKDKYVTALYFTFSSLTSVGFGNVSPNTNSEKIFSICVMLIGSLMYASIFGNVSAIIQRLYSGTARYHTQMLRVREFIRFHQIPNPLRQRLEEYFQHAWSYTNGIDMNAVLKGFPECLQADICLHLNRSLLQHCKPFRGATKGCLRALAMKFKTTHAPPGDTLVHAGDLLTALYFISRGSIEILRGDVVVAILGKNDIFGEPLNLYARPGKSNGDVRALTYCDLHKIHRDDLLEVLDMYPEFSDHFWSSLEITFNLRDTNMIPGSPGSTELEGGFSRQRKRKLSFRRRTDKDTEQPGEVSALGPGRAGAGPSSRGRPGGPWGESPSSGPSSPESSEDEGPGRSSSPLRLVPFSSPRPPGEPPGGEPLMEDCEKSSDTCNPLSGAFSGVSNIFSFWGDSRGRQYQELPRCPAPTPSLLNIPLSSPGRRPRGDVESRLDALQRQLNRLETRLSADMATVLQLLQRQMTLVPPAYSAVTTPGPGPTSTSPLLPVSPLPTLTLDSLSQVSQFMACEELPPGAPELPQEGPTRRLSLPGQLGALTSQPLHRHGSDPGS

[6] = target: cGMP-inhibited 3',5'-cyclic phosphodiesterase 3A (Homo sapiens, UniProt Q14432); format: functional
[7] = target: Sodium-dependent serotonin transporter (Homo sapiens, UniProt P31645)
Chain of Sodium-dependent serotonin transporter (P31645 whole entry): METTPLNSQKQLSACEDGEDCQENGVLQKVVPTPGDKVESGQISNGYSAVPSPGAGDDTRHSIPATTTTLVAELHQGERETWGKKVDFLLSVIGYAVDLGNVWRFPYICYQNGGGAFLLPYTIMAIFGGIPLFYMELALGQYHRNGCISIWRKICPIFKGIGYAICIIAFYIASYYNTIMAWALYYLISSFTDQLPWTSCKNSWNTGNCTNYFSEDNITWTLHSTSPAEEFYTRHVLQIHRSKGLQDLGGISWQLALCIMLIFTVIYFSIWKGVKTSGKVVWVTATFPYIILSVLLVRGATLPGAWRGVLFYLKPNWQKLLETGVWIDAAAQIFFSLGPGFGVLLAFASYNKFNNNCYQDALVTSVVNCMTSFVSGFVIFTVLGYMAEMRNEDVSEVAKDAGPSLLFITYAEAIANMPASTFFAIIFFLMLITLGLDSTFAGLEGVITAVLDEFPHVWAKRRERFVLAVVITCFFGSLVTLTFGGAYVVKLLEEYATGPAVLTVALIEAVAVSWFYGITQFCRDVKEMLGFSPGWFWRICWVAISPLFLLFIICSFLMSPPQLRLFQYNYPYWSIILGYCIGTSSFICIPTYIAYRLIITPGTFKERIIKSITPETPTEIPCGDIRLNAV

[8] = target: T3, Type-1 angiotensin II receptor (Homo sapiens, UniProt P30556)
T3 sequence (P30556 whole entry): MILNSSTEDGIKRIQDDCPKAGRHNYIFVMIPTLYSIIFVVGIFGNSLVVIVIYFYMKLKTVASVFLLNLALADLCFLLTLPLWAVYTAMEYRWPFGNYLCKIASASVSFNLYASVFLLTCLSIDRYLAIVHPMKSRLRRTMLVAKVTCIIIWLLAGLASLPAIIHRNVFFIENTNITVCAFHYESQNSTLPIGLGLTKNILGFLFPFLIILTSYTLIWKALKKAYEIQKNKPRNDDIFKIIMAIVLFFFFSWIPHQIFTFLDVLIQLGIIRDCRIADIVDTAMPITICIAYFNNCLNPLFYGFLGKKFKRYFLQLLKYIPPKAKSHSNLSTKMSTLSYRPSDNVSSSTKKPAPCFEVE

[9] = target: Kappa-type opioid receptor (Homo sapiens, UniProt P41145)
Chain of Kappa-type opioid receptor (P41145 whole entry): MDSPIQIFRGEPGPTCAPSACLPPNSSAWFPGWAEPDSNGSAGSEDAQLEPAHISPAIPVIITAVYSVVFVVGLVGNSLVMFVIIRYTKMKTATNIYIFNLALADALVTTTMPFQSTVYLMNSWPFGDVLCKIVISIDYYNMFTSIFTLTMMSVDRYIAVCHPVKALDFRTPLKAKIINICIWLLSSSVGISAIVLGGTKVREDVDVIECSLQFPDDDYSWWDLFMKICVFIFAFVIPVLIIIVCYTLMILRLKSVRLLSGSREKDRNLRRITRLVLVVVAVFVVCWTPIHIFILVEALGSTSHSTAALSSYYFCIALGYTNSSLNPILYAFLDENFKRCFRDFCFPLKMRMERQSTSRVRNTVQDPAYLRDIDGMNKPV
Further: assay procedure not described here.

Compound	AC50 (Acetylcholinesterase) [µM]	AC50 [1] [µM]	AC50 [2] [µM]	AC50 (D(1A) dopamine receptor) [µM]	AC50 (D(3) dopamine receptor) [µM]	AC50 [3] [µM]	AC50 [4] [µM]	AC50 [5] [µM]	AC50 [6] [µM]	AC50 [7] [µM]	AC50 [8] [µM]	AC50 [9] [µM]
Nc1ccncc1N [AMIFAMPRIDINE]	> 30	> 30	> 30	> 30	> 30	> 30	> 30	> 30	> 30	> 30	–	–
C=CCN1C[C@H](C(=O)N(CCCN(C)C)C(=O)NCC)C[C@@H]2c3cccc4[nH]cc(c34)C[C@H]21 [CABERGOLINE]	11.4	0.142	> 30	0.648	0.003	> 30	–	7.68	> 30	> 30	> 10	> 10
OC[C@@H](O)[C@H](O)[C@@H](O)CO [XYLITOL]	> 30	> 30	> 30	> 30	> 30	> 30	–	> 30	> 30	> 30	–	–
CC(=O)Oc1ccc2c(c1)CC[C@@H]1[C@@H]2CC[C@]2(C)[C@@H](O)CC[C@@H]12 [ESTRADIOL ACETATE]	> 30	> 30	7.24	> 30	> 30	> 30	–	> 30	> 30	> 30	–	–
O=c1[nH]c(=O)n([C@H]2C[C@H](O)[C@@H](CO)O2)cc1F [FLOXURIDINE]	> 30	> 30	–	> 30	> 30	> 30	–	> 30	> 30	–	–	–
NC1=NCC2c3ccccc3Cc3ccccc3N12 (stereo unspecified) [EPINASTINE]	> 30	> 30	> 30	0.125	> 30	28.3	–	–	> 30	10.3	–	–
CCCC1O[C@@H]2C[C@H]3[C@@H]4CCC5=CC(=O)C=C[C@]5(C)[C@H]4[C@@H](O)C[C@]3(C)[C@]2(C(=O)CO)O1 (stereo partly specified) [BUDESONIDE]	> 30	> 30	–	> 30	> 30	> 30	–	> 30	> 30	–	> 10	> 10
CC(C)(C)C(=O)C(Oc1ccc(Cl)cc1)n1ccnc1 (stereo unspecified) [CLIMBAZOLE]	> 30	> 30	10.2	> 30	> 30	> 30	–	> 30	> 30	29.7	–	–
CCN(CC)CCOC(=O)C(c1ccccc1)C1CCCCC1 (stereo unspecified) [DROFENINE]	> 30	> 30	0.0078	13.7	0.217	> 30	–	4.7	> 30	> 30	–	–
NNc1nnc(NN)c2ccccc12 [DIHYDRALAZINE]	> 30	> 30	> 30	> 30	> 30	> 30	–	0.44	> 30	> 30	–	–
CC[C@@H](C(N)=O)N1CCCC1=O	> 30	> 30	> 30	> 30	> 30	> 30	–	> 30	> 30	> 30	> 30	> 30
CC(=O)Oc1c(C)c(C)c2c(c1C)CC[C@@](C)(CCC[C@H](C)CCC[C@H](C)CCCC(C)C)O2	> 30	> 30	> 30	> 30	> 30	> 30	–	> 30	0.933	> 30	–	–
COc1ccc2c(c1)N(C[C@H](C)CN(C)C)c1ccccc1S2 [LEVOMEPROMAZINE]	> 30	–	0.331	–	0.019	> 30	–	11	> 30	> 30	–	–
N=c1ccn2c(n1)O[C@H]1[C@H](O)[C@@H](CO)O[C@H]12 [ANCITABINE]	> 30	> 30	> 30	> 30	> 30	> 30	–	> 30	> 30	> 30	–	–
CCCNC(C)C(=O)Nc1c(C)csc1C(=O)OC (stereo unspecified) [ARTICAINE]	> 30	> 30	> 30	> 30	> 30	> 30	–	> 30	> 30	> 30	–	–
CCOC(=O)[C@H](CCc1ccccc1)N[C@@H](C)C(=O)N1CC2(C[C@H]1C(=O)O)SCCS2	> 30	> 30	> 30	> 30	> 30	> 30	–	> 30	> 30	> 30	–	–
CC(C)C[C@H]1C(=O)N2CCC[C@H]2[C@]2(O)O[C@](NC(=O)[C@@H]3C[C@@H]4c5cccc6[nH]cc(c56)C[C@H]4N(C)C3)(C(C)C)C(=O)N12 [DIHYDROERGOCRYPTINE]	> 30	5.77	> 30	0.597	0.202	> 30	–	> 30	> 30	> 30	–	–
O=c1[nH]c(=O)n([C@H]2C[C@H](O)[C@@H](CO)O2)cc1I [IDOXURIDINE]	> 30	> 30	–	> 30	> 30	> 30	–	> 30	> 30	–	–	–
COc1cc2c3cc1Oc1cc(ccc1O)C[C@@H]1c4c(cc(OC)c(O)c4Oc4ccc(cc4)C[C@@H]3N(C)CC2)CC[N+]1(C)C [TUBOCURARINE]	> 30	> 30	–	> 30	> 30	> 30	–	> 30	> 30	–	–	–
CC(=O)c1ccc2c(c1)N(CCCN(C)C)c1ccccc1S2 [ACEPROMAZINE]	> 30	> 30	0.151	0.0259	0.0087	> 30	–	2.5	> 30	0.145	–	–
